Measurements: patent US11091496B2, “Opioid ketal compounds and uses thereof” (priority 2013, dated 2021)
Like-named read-outs stand apart in the source and are kept apart here.

Tests used:
[1] = 5% acetic acid 100° C.; for % Oxycodone, % IVA-IVD in hydrolysis mixture: unreacted oxycodone + four isomers of Formula IV; for % Oxycodone, % IVA-IVD in hydrolysis mixture / % Oxycodone, % Va-Vd in hydrolysis mixture: 1 mg/ml; for % Oxycodone, % Va-Vd in hydrolysis mixture: unreacted oxycodone + four isomers of Formula V
[2] = type: physicochemical; settings: 0.1 N HCl 37° C.; for % Oxycodone, % IVA-IVD in hydrolysis mixture: total 1 mg/ml; for Oxycodone in hydrolysis mixture: from isomer IVC tested separately; for Oxycodone in hydrolysis mixture / % Oxycodone, % IVD in hydrolysis mixture / % Oxycodone, % Ketal a, b in hydrolysis mixture / % Oxycodone, % Ketal A, B in hydrolysis mixture / % hydrocodone, % Ketal in hydrolysis mixture / Hydrocodone, 2R,5R ketal in hydrolysis mixture / Hydrocodone, 2S,5S ketal in hydrolysis mixture: 1 mg/ml; for Oxycodone in hydrolysis mixture / % Oxycodone, % IVD in hydrolysis mixture: normalized; for % Oxycodone, % IVD in hydrolysis mixture: isomer IVD tested separately; for % Oxycodone, % Ketal a, b in hydrolysis mixture: mixture of oxycodone 3,5-octanediol ketals; for % Oxycodone, % Ketal A, B in hydrolysis mixture: mixture of oxycodone cis 1,2-cyclohexanedimethanol ketals; for % hydrocodone, % Ketal in hydrolysis mixture: hydrocodone 1,3-propanediol ketal; for Hydrocodone, 2R,5R ketal in hydrolysis mixture: hydrocodone 2R,5R-hexanediol ketal tested separately; for Hydrocodone, 2S,5S ketal in hydrolysis mixture: hydrocodone 2S,5S-hexanediol ketal tested separately
[3] = Hydrolysis in Simulated Gastric Fluid (SGF) at 37° C., LC/MS; settings: SGF 37° C.; for Oxycodone, Ketal A-D in hydrolysis mixture: oxycodone 2,4-pentanediol ketal isomers + unreacted oxycodone, 2 mg/nil; for Hydrocodone in hydrolysis mixture: from hydrocodone 2,4-pentanediol ketal isomers, 1 mg/ml
[4] = Hydrolysis in fresh EDTA stabilized blood plasma at 37° C.; settings: mixture of isomers, 1.1 mg, four hour period
[5] = Hydrolysis in Coca Cola, pH 4 buffer or pH 7 buffer, 3 days; type: physicochemical; settings: 1 mg/ml; for Hydrolysis to Oxycodone: after 3 days

SMILES: COc1ccc2c3c1O[C@H]1C(=O)CC[C@@]4(O)[C@@H](C2)N(C)CC[C@]314 [Oxycodone, oxycodone, reference compound]
- % Oxycodone, % IVA-IVD in hydrolysis mixture ([1]; 0 h): 10.3%
- % Oxycodone, % IVA-IVD in hydrolysis mixture ([1]; 0.5 h): 55.8%
- % Oxycodone, % IVA-IVD in hydrolysis mixture ([1]; 1 h): 69.6%
- % Oxycodone, % IVA-IVD in hydrolysis mixture ([1]; 2 h): 83.9%
- % Oxycodone, % IVA-IVD in hydrolysis mixture ([1]; 4.35 h): 87.9%
- % Oxycodone, % IVA-IVD in hydrolysis mixture ([1]; 10 h): 95.2%
- % Oxycodone, % Va-Vd in hydrolysis mixture ([1]; 0 h): 1%
- % Oxycodone, % Va-Vd in hydrolysis mixture ([1]; 0.33 h): 31.8%
- % Oxycodone, % Va-Vd in hydrolysis mixture ([1]; 0.67 h): 46.4%
- % Oxycodone, % Va-Vd in hydrolysis mixture ([1]; 1 h): 56.5%
- % Oxycodone, % Va-Vd in hydrolysis mixture ([1]; 2 h): 72.8%
- % Oxycodone, % Va-Vd in hydrolysis mixture ([1]; 4 h): 85.4%
- % Oxycodone, % IVA-IVD in hydrolysis mixture ([2]; 0 h): 11.4%
- % Oxycodone, % IVA-IVD in hydrolysis mixture ([2]; 0.583 h): 25.5%
- % Oxycodone, % IVA-IVD in hydrolysis mixture ([2]; 1.167 h): 33%
- % Oxycodone, % IVA-IVD in hydrolysis mixture ([2]; 1.75 h): 44%
- % Oxycodone, % IVA-IVD in hydrolysis mixture ([2]; 2.33 h): 47.6%
- % Oxycodone, % IVA-IVD in hydrolysis mixture ([2]; 2.92 h): 50.9%
- % Oxycodone, % IVA-IVD in hydrolysis mixture ([2]; 4 h): 56.8%
- % Oxycodone, % IVA-IVD in hydrolysis mixture ([2]; 6.5 h): 66%
- % Oxycodone, % IVA-IVD in hydrolysis mixture ([2]; 9.75 h): 72.6%
- % Oxycodone, % IVA-IVD in hydrolysis mixture ([2]; 13.75 h): 79.7%
- % Oxycodone, % IVA-IVD in hydrolysis mixture ([2]; 25 h): 86.4%
- Oxycodone in hydrolysis mixture ([2]; 0 h): 1.3
- Oxycodone in hydrolysis mixture ([2]; 0.75 h): 28.5
- Oxycodone in hydrolysis mixture ([2]; 1.5 h): 46
- Oxycodone in hydrolysis mixture ([2]; 3.33 h): 81.2
- Oxycodone in hydrolysis mixture ([2]; 6 h): 95.3
- Oxycodone in hydrolysis mixture ([2]; 8 h): 97.9
- % Oxycodone, % IVD in hydrolysis mixture ([2]; 0 h): 0.8%
- % Oxycodone, % IVD in hydrolysis mixture ([2]; 0.17 h): 26.9%
- % Oxycodone, % IVD in hydrolysis mixture ([2]; 0.33 h): 55.2%
- % Oxycodone, % IVD in hydrolysis mixture ([2]; 1 h): 89.2%
- % Oxycodone, % IVD in hydrolysis mixture ([2]; 2 h): 98%
- % Oxycodone, % Ketal a, b in hydrolysis mixture ([2]; 0 h): 0.3%
- % Oxycodone, % Ketal a, b in hydrolysis mixture ([2]; 0.33 h): 12.1%
- % Oxycodone, % Ketal a, b in hydrolysis mixture ([2]; 1 h): 26.5%
- % Oxycodone, % Ketal a, b in hydrolysis mixture ([2]; 2 h): 40.7%
- % Oxycodone, % Ketal a, b in hydrolysis mixture ([2]; 4 h): 56.1%
- % Oxycodone, % Ketal A, B in hydrolysis mixture ([2]; 0 h): 27.2%
- % Oxycodone, % Ketal A, B in hydrolysis mixture ([2]; 0.56 h): 28.1%
- % Oxycodone, % Ketal A, B in hydrolysis mixture ([2]; 1.25 h): 33.8%
- % Oxycodone, % Ketal A, B in hydrolysis mixture ([2]; 2 h): 37.4%
- % Oxycodone, % Ketal A, B in hydrolysis mixture ([2]; 4.45 h): 56.4%
- Oxycodone, Ketal A-D in hydrolysis mixture ([3]; 0 h): 7.3
- Oxycodone, Ketal A-D in hydrolysis mixture ([3]; 0.58 h): 19.9
- Oxycodone, Ketal A-D in hydrolysis mixture ([3]; 1.25 h): 35.3
- Oxycodone, Ketal A-D in hydrolysis mixture ([3]; 2 h): 43
- Oxycodone, Ketal A-D in hydrolysis mixture ([3]; 3 h): 51
- Oxycodone, Ketal A-D in hydrolysis mixture ([3]; 4 h): 58.7

SMILES: COc1ccc2c3c1O[C@H]1C(=O)CC[C@H]4[C@@H](C2)N(C)CC[C@]314 [Hydrocodone, hydrocodone, reference compound]
- % hydrocodone, % Ketal in hydrolysis mixture ([2]; 0 h): 6.9%
- % hydrocodone, % Ketal in hydrolysis mixture ([2]; 0.57 h): 34.3%
- % hydrocodone, % Ketal in hydrolysis mixture ([2]; 1.25 h): 47.7%
- % hydrocodone, % Ketal in hydrolysis mixture ([2]; 2 h): 58.2%
- % hydrocodone, % Ketal in hydrolysis mixture ([2]; 3 h): 67.8%
- % hydrocodone, % Ketal in hydrolysis mixture ([2]; 4 h): 74.4%
- Hydrocodone, 2R,5R ketal in hydrolysis mixture ([2]; 0 h): 26.1
- Hydrocodone, 2R,5R ketal in hydrolysis mixture ([2]; 0.5 h): 65.4
- Hydrocodone, 2R,5R ketal in hydrolysis mixture ([2]; 1.25 h): 88.6
- Hydrocodone, 2R,5R ketal in hydrolysis mixture ([2]; 2 h): 97.3
- Hydrocodone, 2R,5R ketal in hydrolysis mixture ([2]; 3 h): 100
- Hydrocodone, 2R,5R ketal in hydrolysis mixture ([2]; 4 h): 100
- Hydrocodone, 2S,5S ketal in hydrolysis mixture ([2]; 0 h): 18.02
- Hydrocodone, 2S,5S ketal in hydrolysis mixture ([2]; 0.5 h): 47.82
- Hydrocodone, 2S,5S ketal in hydrolysis mixture ([2]; 1.25 h): 64.89
- Hydrocodone, 2S,5S ketal in hydrolysis mixture ([2]; 2 h): 89.81
- Hydrocodone, 2S,5S ketal in hydrolysis mixture ([2]; 3 h): 95.71
- Hydrocodone, 2S,5S ketal in hydrolysis mixture ([2]; 4 h): 98
- Hydrocodone in hydrolysis mixture ([3]; 0 h): 1
- Hydrocodone in hydrolysis mixture ([3]; 0.58 h): 33.7
- Hydrocodone in hydrolysis mixture ([3]; 1.25 h): 45.9
- Hydrocodone in hydrolysis mixture ([3]; 2 h): 48.1
- Hydrocodone in hydrolysis mixture ([3]; 3 h): 55.1
- Hydrocodone in hydrolysis mixture ([3]; 4 h): 58.3

SMILES: COc1ccc2c3c1O[C@H]1C4(CCC5(O)[C@@H](C2)N(C)CC[C@]315)OC(C)CC(C)O4 (some centres unmarked) [Formula IV, oxycodone 2,4-pentanediol ketal]
- time to about 80% hydrolysis to oxycodone ([1]; FIG. 12): about 2 hours
- time to almost completely hydrolyze to oxycodone ([1]; FIG. 12, FIG. 13): about 10 hours
- ketal hydrolyzed to parent opioid in blood plasma [4]: approximately 6%
- time at which about 50% of the oxycodone is released ([2]; mixture of isomers): about 2.9 hours
- time by which about (almost) 90% oxycodone release occurs ([2]; mixture of isomers): ≤ 25 h
- degree of hydrolysis after 3 days ([5]; Coca Cola, pH 4 buffer, pH 7 buffer): very low degree of hydrolysis
- Hydrolysis to Oxycodone ([5]; Coca Cola, 23° C.): 5%
- Hydrolysis to Oxycodone ([5]; pH 4 Buffer, 37° C.): 4%
- Hydrolysis to Oxycodone ([5]; pH 7 Buffer, 37° C.): 0%
